Reference: US10617670B2, “Synergistic auristatin combinations” (priority 2014, dated 2020)

Columns and labels:
[1] = test system: lung, breast cancer and ovarian cancer cell lines; assay: In vitro cytotoxic activity and combinations, cell line panel; format: cell-based, human; settings: agent alone
Method: Cells were plated in a 96-well clear-bottomed plates (Corning) and treated with varying concentrations of compounds for 4 days. […] by using a CellTiter Glo luminescent cell viability assay kit (Promega) and measured using a Victor X3 plate reader (Perkin Elmer). The data were normalised to the control group (empty vector or DMSO). The IC50 values were defined as the concentration that causes 50% growth inhibition. IC50 values were calculated using a logistic nonlinear regression, model no. 203 with XL fit v4.2 (IDBS, Guldford, Surry, UK). All experimental points were setup in three replicate wells and independently performed in duplicate.
The effects of drug combinations were evaluated using Chou-Talalay median effect analysis (28). Cells were treated with each drug alone and in combination in two independent 96-well plates in a diagonal matrix format, and proliferation was measured by using a CellTiter Glo kit (Promega). Results were expressed as surviving fractions (fraction affected, Fa), based on the measured luminescence counts of treated samples, compared to that of untreated controls. […]
In vitro cytotoxic activity was evaluated for the 5T4-ADC or the auristatin payloads in combination with various standard of care (SOC) agents or selected signaling inhibitors in lung, breast cancer and ovarian cancer cell lines. […]

[2] = test system: subcutaneous MDA-468 tumors; assay: Xenograft efficacy; format: in vivo, mouse; settings: 5T4-ADC 2 mg/kg
Method: Female athymic nu/nu mice (18-23 g) were obtained from Charles River Laboratories, Wilmington, Mass. […] ADCs were administered based on mAb protein content at 2 or 3 mg Ab/kg on a Q4D×4 (every 4 day) schedule, with 8 to 10 mice per group. […] All procedures using mice were approved by the Pfizer Institutional Animal Care and Use Committee according to established guidelines. Time To Endpoint (time to no tumor or rate of tumor tripling) were used for comparison of drug-treated groups.

[3] = test system: more than 50 diverse human tumor cell lines; assay: Anti-proliferative effect in tumor cell lines; format: cell-based
MDA-MB-361 = assay: Apoptosis induction; format: cell-based; settings: at 4 h, cleaved PARP
in vitro = settings: rat, plasma
[4] = test system: human cancer cell lines with PI3K pathway aberrations; assay: Mouse xenograft models
[5] = test system: panel of 81 protein kinases and Class III PI3K family hVps34; assay: Kinase screening services (Dundee University and Invitrogen); format: biochemical; settings: 81 protein kinases and hVps34
[6] = rat

O=C(NOC[C@H](O)CO)c1ccc(F)c(F)c1Nc1ccc(I)cc1F [PD-901]
sensitivity of most of the cell lines to the single agent [1]: relatively insensitive

CC(=O)O[C@H]1C(=O)[C@@]2(C)[C@H]([C@H](OC(=O)c3ccccc3)[C@]3(O)C[C@H](OC(=O)[C@H](O)[C@@H](NC(=O)c4ccccc4)c4ccccc4)C(C)=C1C3(C)C)[C@]1(OC(C)=O)CO[C@@H]1C[C@@H]2O [paclitaxel]
regressions / CRs by day 53 ([2]; paclitaxel 22.5 mg/kg): 6/10
antitumor activity of monotherapy ([2]; paclitaxel 10 mg/kg): no pronounced effect on tumor growth

CN(C)C1CCN(C(=O)c2ccc(NC(=O)Nc3ccc(-c4nc(N5CCOCC5)nc(N5CCOCC5)n4)cc3)cc2)CC1 [PF-384, 1-(4-{[4-(dimethylamino)piperidin-1-yl]carbonyl}phenyl)-3-[4-(4,6-dimorpholin-4-yl-1,3,5-triazin-2-yl)phenyl]urea]
IC50 [3]: < 100 nM
concentration at which apoptosis was induced (MDA-MB-361): 30 nM

COc1ccc(-c2cc3c(C)nc(N)nc3n([C@H]3CC[C@H](OCCO)CC3)c2=O)cn1 [Compound 1A, 2-amino-8-[trans-4-(2-hydroxyethoxy)cyclohexyl]-6-(6-methoxypyridin-3-yl)-4-methylpyrido[2,3-d]pyrimidin-7(8H)-one]
fraction unbound (in vitro): 0.202
in vivo activity [4]: has in vivo activity
concentration up to which no significant inhibitory activity was observed for any of the evaluated kinases [5]: > 10 µM
clearance [6]: low clearance

C#Cc1cccc(Nc2ncnc3cc(OCCOC)c(OCCOC)cc23)c1 [Erlotinib]
sensitivity of most of the cell lines to the single agent [1]: relatively insensitive
